# Reference: patent US8242250B2, “Nucleic acid molecule encoding a cystine knot polypeptide” (The University of Queensland, priority 1999, dated 2012)
# Key:
# [1] = test system: Helicoverpa armigera larvae; assay: Bioassay with cotton leaf artificial diet, growth and development of larvae; assay type: in vivo
# Experimental: Helicoverpa armigera larvae were raised on an artificial diet based on cotton leaves. One hundred ml of cotton leaf artificial diet was composed of 3 g cotton leaf powder (see below), 2 g Tortula yeast, 2.4 g wheat germ, 3.2 g ascorbic acid, 0.08 g sorbic acid, 0.16 g paraben (mould inhibitor), 0.08 ml linseed oil, 0.16 ml wheatgerm oil, 0.028 g ampicillin, 0.028 g streptomycin, 3.2 g agar and 80 ml water. Cotton leaf powder was prepared from freshly picked young, healthy cotton leaves which had been rapidly frozen in liquid nitrogen and freeze dried before they were ground to a fine powder using a mortar and pestle. Test diets contained the cyclic Kalata B1 peptide at 0.15% w/v of diet (high kalata) or 0.03% w/v of diet (low kalata), linear peptide (backbone chain opened between residues 7 and 8 [see FIG. 1A] at 0.15% w/v of diet. The control diet contained casein at 0.15% w/v of diet. The diet was mixed and dispensed as described for the Haricot bean diet and the bioassay was conducted in the same manner.
# Newly hatched larvae were fed on an artificial diet based on cotton leaves, with and without added Kalata B1. […] Larvae on the Kalata B1 diet were about 18% of the size of those fed on the control diet.
# Kalata peptides isolated from leaves are normally cyclic. The inventors sought to determine whether cyclization was essential for biological activity against insects. Newly hatched H. armigera larvae were added to an artificial diet based on cotton leaves which had been supplemented with cyclic Kalata B1 at either 0.15% w/v of diet or 0.03% w/v of diet. Growth of these larvae was compared to growth of larvae on diet with no added peptide or with added linear Kalata B1 at 0.15% w/v of the diet. Linear Kalata B1 is identical to cyclic Kalata B1 except the backbone chain is open between residues 7 and 8 [see FIG. 1A].
# [2] = test system: Helicoverpa punctigera larvae; assay: Bioassay with Haricot bean artificial diet, growth and development of larvae; assay type: in vivo
# Experimental: Helicoverpa punctigera larvae were raised on artificial diets based on Haricot beans (Teakle et al. (13)). One litre of diet was composed of 234 g Haricot beans, 14 g agar, 700 ml water, 35 g Tortula yeast, 50 g wheatgerm, 3.5 g ascorbic acid, 1.1 g sorbic acid, 2.2 g p-hydroxybenzoic acid methyl ester, 0.2 g ampicillin, 0.2 g streptomycin, 16 mg prochloraz. The beans were soaked overnight in water, drained and homogenized to a fine paste. Wheatgerm, yeast and 300 ml of water were added. The agar was dissolved in 400 ml of boiling water and added to the mixture. The mixture was cooled to 50° C. before the addition of the remaining ingredients. The blended diet was poured into trays and after setting was used immediately or stored at −20° C. for no longer than two weeks. The test diet was supplemented with the Kalata B1 peptide (0.825 μmol/g of diet). Twenty newly emerged neonates were added to each diet and mortality was recorded every two days. Weight gain was recorded at the sixth day and then every second day thereafter. The larvae were reared in 1.5 ml eppendorfs microfuge tubes (one larva/tube) until day eight when they were transferred to individual plastic containers with lids (Solo (trademark) plastic portion cups, 28 ml) at the eight day. Larvae were fed small amounts of diet (40 mg) initially that was replaced as required to provide a continuous supply. The larvae were kept in a temperature controlled room at 25±1° C., 16:8 (L:D).
# Most larvae on the control diet, however, had achieved fifth instar (FIGS. 13B, C).
substance,measurement,setting,value
"Kalata B1: 29 amino acid peptide with cyclic backbone and cystine knot from O. affinis (SEQ ID NO: 41) (cyclo(VCGETCVGGTCNTPGCTCSWPVCTRNGLP); disulfide (positions not given here); also: cystine knot, pairings not given here; listed as Oldenlandia affinis)",size of larvae relative to those fed on the control diet,"[1]; cotton leaf diet with added Kalata B1, 12 days",about 18%
same,instar stage of development reached after 12 days,"[1]; cotton leaf diet, 12 days, control larvae at third to fourth instar",failed to progress past the first instar stage of development
same,effect on growth compared with the linear form,[1]; cyclic form at one fifth the concentration of the linear form (0.03% vs 0.15% w/v of diet),more significant effect on growth
same,instar stage of development reached by survivors after 16 days,"[2]; 0.825 μmol/g of diet, 16 days, most control larvae at fifth instar",none of the 12 survivors had progressed past the first instar stage of development
same,larvae that failed to survive past day 16,"[2]; 0.825 μmol/g of diet, day 16",50%
same,mortality in the first six days,"[2]; 0.825 μmol/g of diet, first six days, twenty neonates",No mortality
same,size of larvae after 16 days on artificial diet,"[2]; 16 days, control diet ~30 mm (FIG. 13C)",~5 mm
same,effect on the development of larvae,[2]; Haricot bean diet with peptide 0.825 μmol/g of diet,significant effect
